In PMC9594046, “Identification of Histone Peptide Binding Specificity and Small-Molecule Ligands for the TRIM33α and TRIM33β Bromodomains” (ACS Chemical Biology, 2022):
Substitutions are numbered along the chain they refer to.

Experiments:
TRIM33 = test system: TRIM33; set-up: method as in earlier work; conditions: isoform later confirmed to be TRIM33α; read-out: reported TRIM33 IC50 (AlphaScreen); cited from earlier work
TRIM24 PHD-BRD = biological target: T1, TRIM24 PHD-BRD (Homo sapiens, UniProt O15164); experiment: AlphaScreen dose-response displacement of biotinylated H3 peptide; conditions: TRIM24 IC50 (AlphaScreen)
T1 sequence (O15164 with tags, fused parts or gaps): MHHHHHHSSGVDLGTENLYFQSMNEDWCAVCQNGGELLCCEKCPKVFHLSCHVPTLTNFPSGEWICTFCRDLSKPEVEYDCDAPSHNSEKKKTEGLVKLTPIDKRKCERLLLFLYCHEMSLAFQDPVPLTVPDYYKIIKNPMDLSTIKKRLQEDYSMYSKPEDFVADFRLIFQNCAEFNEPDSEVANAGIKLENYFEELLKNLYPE
Method: (§5) To establish an AlphaScreen assay,[13],[50],[51] the PHD-BRD cassettes of TRIM24 and both TRIM33 isoforms were expressed with an N-terminal His6 tag attached (CD spectra for these constructs are shown in Figure S9).
(§6) Assay buffer was freshly prepared each day by supplementing HEPES buffer with BSA, the pH was
(§7) adjusted to 7.6 and filter sterilized through a 0.22 µm filter, and stored at 4 °C until use.
(§8) steps, the plate was sealed, shaken for 10 sec at 600 rpm on a plate oscillator, and incubated at room
(§9) in triplicate, as point concentrations or serial buffer dilutions from 50 mM DMSO solutions.
(§10) peptide mix (7 µL) was dispensed into each well using a Thermo-Fisher electronic multi-channel
(§11) pipette, and incubated for 30 min. AlphaScreen bead mix (8 µL; 25 µg/mL of acceptor and donor beads)
(§12) was added to each well, taking adequate precautions to avoid light exposure, before being incubated for
(§13) 1 h. The plate was read using a Synergy™ 2 MultiMode Microplate Reader using the built-in
(§14) Single shot screening was performed in triplicate.
(§15) <0.5% DMSO. Inhibition is reported as a reduction in signal arising from peptide-bromodomain
(§16) interaction, normalised to a DMSO control. Signal response curves were obtained for peptides or
(§17) compounds in triplicate, with serial 1:2 dilutions. Samples containing buffer or DMSO in place of
(§18) compound were included in all assays for normalisation. Data were processed by fitting a four-
(§19) parameter equation shown below to calculate IC50 values using GraFit version 7.0.32 or GraphPad Prism
(§20) 𝑌 = 𝑀𝑖𝑛𝑖𝑚𝑢𝑚 + 𝑀𝑎𝑥𝑖𝑚𝑢𝑚 − 𝑚𝑖𝑛𝑖𝑚𝑢𝑚 ,𝑤ℎ𝑒𝑟𝑒 𝑋 = log (𝑐𝑜𝑚𝑝𝑜𝑢𝑛𝑑 𝑐𝑜𝑛𝑐𝑒𝑛𝑡𝑟𝑎𝑡𝑖𝑜𝑛) 1 + 10("#$%&!"’()(*+,, .,/01)
(§21) Assay buffer was prepared as above. For incubation steps, the plate was sealed, shaken for 10 sec at
(§22) 600 rpm on a plate oscillator, and incubated at room temperature in the dark. Peptides (5 µL) were
(§23) dilutions from 100 µM HEPES buffer stock solutions. Protein (7 µL) was dispensed into each well
(§24) using a Thermo-Fisher electronic multi-channel pipette, and incubated for 30 min. AlphaScreen bead
(§25) mix (8 µL; 25 µg/mL of acceptor and donor beads) was added to each well, avoiding light exposure,
(§26) before being incubated for 1 h. The plate was read using a Synergy™ 2 MultiMode Microplate Reader
(§27) Ni2+ chelate acceptor and streptavidin donor beads were prepared as a mixture in a 1:300 or 1:400
(§28) dilution as required (0.005–0.007 mg/mL FAC); biotinylated peptide employed, and final assay
(§29) concentrations were as detailed in table below. Assay well volume was 20 µL.
(§30) Peptides were supplied as 1–9 mg quantities with >95% purity (as determined by HPLC; Cambridge
(§31) Research Biochemicals or Genscript). Residual water and counter ions were predicted to comprise 20%
(§32) of the net mass, and peptides were dissolved to 10, 1.0, and 0.1 mM stocks in buffer (50 mM HEPES,
(§33) 500 mM NaCl; pH 7.6) before being stored at -80 °C in 5 µL aliquots. A terminal tyrosine residue was
(§34) incorporated into the peptide structure to allow for accurate quantification of concentration.

TRIM33α PHD-BRD = biological target: T2, TRIM33α PHD-BRD (Homo sapiens, UniProt Q9UPN9); experiment: as above; conditions: TRIM33α IC50 (AlphaScreen)
T2 sequence (Q9UPN9 888-1127): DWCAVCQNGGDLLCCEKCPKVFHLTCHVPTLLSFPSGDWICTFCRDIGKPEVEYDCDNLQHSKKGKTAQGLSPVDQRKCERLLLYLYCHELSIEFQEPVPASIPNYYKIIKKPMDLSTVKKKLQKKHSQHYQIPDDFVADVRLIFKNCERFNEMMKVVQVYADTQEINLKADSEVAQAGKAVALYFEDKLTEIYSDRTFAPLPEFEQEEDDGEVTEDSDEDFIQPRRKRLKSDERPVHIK
Method: as §5, §6, §7, §8, §9, §10, §11, §12, §13, §14, §15, §16, §17, §18, §19, §20, §21, §22, §23, §24, §25, §26, §27, §28, §29, §30, §31, §32, §33, §34

TRIM33β PHD-BRD [1] = biological target: T3, TRIM33β PHD-BRD (Homo sapiens, UniProt Q9UPN9); experiment: as above
T3 sequence (Q9UPN9 888-1110 isoform Q9UPN9-2 limits assumed): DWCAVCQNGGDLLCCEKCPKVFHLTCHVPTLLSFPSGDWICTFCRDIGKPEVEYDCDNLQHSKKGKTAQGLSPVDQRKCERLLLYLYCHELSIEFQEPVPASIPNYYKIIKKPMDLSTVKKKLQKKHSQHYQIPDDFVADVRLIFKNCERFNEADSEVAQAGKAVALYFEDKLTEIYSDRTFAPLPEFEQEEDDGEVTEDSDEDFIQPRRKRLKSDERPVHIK
Method: as §5, §6, §7, §8, §9, §10, §11, §12, §13, §14, §15, §16, §17, §18, §19, §20, §21, §22, §23, §24, §25, §26, §27, §28, §29, §30, §31, §32, §33, §34

TRIM33β PHD-BRD [2] = biological target: T3, TRIM33β PHD-BRD; experiment: Isothermal titration calorimetry (ITC); format: binding; set-up: The TRIM33β cassette (residues 888–1127) was expressed; made in house; host or cells: E. coli BL21 (DE3) Gold; conditions: cell 40 µM compound, syringe 316 µM TRIM33β
Text: The first data point was excluded from the analysis.
(1 picture or pasted object on this page, not shown here)

TRIM24 N980F = biological target: T4, TRIM24 N980F (Homo sapiens, UniProt O15164, N980F); experiment: Qualitative WaterLOGSY binding; set-up: key: ✓: √ is assigned to compounds that showed binding; ? is assigned when the result was ambiguous; × is assigned when no-binding was observed; conditions: 500 µM compound, 20 µM protein
T4 sequence (O15164 825-1007 N980F limits assumed): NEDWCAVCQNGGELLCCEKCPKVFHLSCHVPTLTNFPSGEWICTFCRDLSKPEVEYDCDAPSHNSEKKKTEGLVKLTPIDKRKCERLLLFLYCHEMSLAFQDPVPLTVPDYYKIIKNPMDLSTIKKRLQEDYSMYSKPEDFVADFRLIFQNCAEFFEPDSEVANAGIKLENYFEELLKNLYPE
Method: (§1) To investigate where these compounds bind on the TRIM24 or 33 PHD-BRD cassette, we performed waterLOGSY experiments using the wild-type and mutant reader domains (Table 4).
(§2) Table S19. WaterLOGSY buffer composition (10 mM Na/K phosphate buffer, PBS, pH 7.6).
(§3) Reagent Amount required per litre (g)
(§4) The buffer was filtered under vacuum through a 0.2 µm filter paper (Sartorius UK) before use and stored at 4 °C. Proteins were buffer exchanged from HEPES storage buffer into PBS buffer (0.9% NaCl, pH 7.6) using GE Healthcare PD SpinTrap G-25 columns. For each compound, a water-suppressed 1H spectrum was recorded as a reference, followed by waterLOGSY spectra of the compound in the absence and presence of the specified protein. Samples were prepared to a total sample volume of 160 µL in PBS buffer (pH 7.6), with 500 µM compound (unless otherwise specified) from 50 mM DMSO-D6 stock solutions, 10% D2O for signal locking, and 20 µM protein (unless otherwise specified) for samples with protein. After loading into 3 mm Hilgenberg NMR tubes for Bruker Match™ system, samples were briefly centrifuged in a manual benchtop rotor. Spectra were recorded on a Bruker AVIII 700 MHz spectrometer with inverse TCI cryoprobe using a standard waterLOGSY pulse sequence.4 Peaks were assigned using DMSO-D6 as a reference peak at 2.5 ppm.

TRIM24 WT = biological target: T5, TRIM24 WT (Homo sapiens, UniProt O15164); experiment: Qualitative WaterLOGSY binding; set-up: key: ✓: √ is assigned to compounds that showed binding; ? is assigned when the result was ambiguous; × is assigned when no-binding was observed; conditions: 500 µM compound, 20 µM protein
T5 construct: His6-TRIM24 (BRD-PHD); made in house; host or cells: E. coli BL21 (DE3) Gold
T5 sequence (O15164 with tags, fused parts or gaps): T1 sequence (O15164 with tags, fused parts or gaps)
Method: as §1, §2, §3, §4

TRIM33α N1039F = biological target: T6, TRIM33α N1039F (Homo sapiens, UniProt Q9UPN9, N1039F); experiment: Qualitative WaterLOGSY binding; set-up: key: ✓: √ is assigned to compounds that showed binding; ? is assigned when the result was ambiguous; × is assigned when no-binding was observed; conditions: 500 µM compound, 20 µM protein
T6 construct: The TRIM33β cassette (residues 888–1127) was expressed; made in house; host or cells: E. coli BL21 (DE3) Gold
T6 sequence (Q9UPN9 888-1127 N1039F): T2 sequence (Q9UPN9 888-1127) with N152F
Method: as §1, §2, §3, §4

TRIM33α WT = biological target: T7, TRIM33α WT (Homo sapiens, UniProt Q9UPN9); experiment: Qualitative WaterLOGSY binding; set-up: key: ✓: √ is assigned to compounds that showed binding; ? is assigned when the result was ambiguous; × is assigned when no-binding was observed; conditions: 500 µM compound, 20 µM protein
T7 construct: The TRIM33β cassette (residues 888–1127) was expressed; made in house; host or cells: E. coli BL21 (DE3) Gold
T7 sequence (Q9UPN9 888-1127): T2 sequence (Q9UPN9 888-1127)
Method: as §1, §2, §3, §4

TRIM33β N1039F = biological target: T8, TRIM33β N1039F (Homo sapiens, UniProt Q9UPN9, N1039F); experiment: Qualitative WaterLOGSY binding; set-up: key: ✓: √ is assigned to compounds that showed binding; ? is assigned when the result was ambiguous; × is assigned when no-binding was observed; conditions: 500 µM compound, 20 µM protein
T8 construct: The TRIM33β cassette (residues 888–1127) was expressed; made in house; host or cells: E. coli BL21 (DE3) Gold
T8 sequence (Q9UPN9 888-1110 isoform Q9UPN9-2 N1039F): T3 sequence (Q9UPN9 888-1110 isoform Q9UPN9-2 limits assumed) with N152F
Method: as §1, §2, §3, §4

TRIM33β WT = biological target: T9, TRIM33β WT (Homo sapiens, UniProt Q9UPN9); experiment: Qualitative WaterLOGSY binding; set-up: key: ✓: √ is assigned to compounds that showed binding; ? is assigned when the result was ambiguous; × is assigned when no-binding was observed; conditions: 500 µM compound, 20 µM protein
T9 construct: The TRIM33β cassette (residues 888–1127) was expressed; made in house; host or cells: E. coli BL21 (DE3) Gold
T9 sequence (Q9UPN9 888-1110 isoform Q9UPN9-2 limits assumed): T3 sequence (Q9UPN9 888-1110 isoform Q9UPN9-2 limits assumed)
Text: To determine whether compounds 3–7 are genuine ligands for TRIM33, we employed an AlphaScreen TruHits screen.[58] The TruHits screen includes streptavidin-coated donor beads and biotinylated acceptor beads, which interact to generate a signal. Compounds that interfere with this control signal, such as fluorescence quenchers, insoluble light scatterers, ^1O2 quenchers, and biotin mimetics, can be identified using this approach. In the TruHits screen,[59] significant assay interference was observed from all five compounds (3–7, Table S21), meaning that AlphaScreen data generated for these compounds are unreliable. We therefore sought to investigate TRIM33 binding of compounds 3 and 4 using ITC and waterLOGSY approaches (Figures S3–6). These compounds were selected as they have a range of reported IC50 values for TRIM33. […] To determine whether these compounds are weak binders to TRIM33β, we subjected them to a waterLOGSY assay against TRIM33β. […] However, the use of different protein isoforms may account for some of the observed discrepancies.
as §1, §2, §3, §4

BRPF1 BRD = conditions: read-out: BRPF Kd (ITC); cited from earlier work
[3] = peptide in assay H31-27K9Me3 (PHD)
[4] = peptide in assay H31-27K9Me3K18Ac (DUAL)
[5] = peptide in assay H31-27K18Ac (BRD)

Structure (SMILES) | IC50 (TRIM33) [µM] | IC50 (TRIM24 PHD-BRD; [3]) [µM] | IC50 (TRIM24 PHD-BRD; [4]) [µM] | IC50 (TRIM24 PHD-BRD; [5]) [µM] | IC50 (TRIM33α PHD-BRD; [3]) [µM] | IC50 (TRIM33α PHD-BRD; [4]) [µM] | IC50 (TRIM33α PHD-BRD; [5]) [µM] | IC50 (TRIM33β PHD-BRD [1]; [3]) [µM] | IC50 (TRIM33β PHD-BRD [1]; [4]) [µM] | IC50 (TRIM33β PHD-BRD [1]; [5]) [µM] | binding to TRIM33β by ITC (TRIM33β PHD-BRD [2]) | WaterLOGSY binding TRIM24 N980F (TRIM24 N980F) | WaterLOGSY binding TRIM24 WT (TRIM24 WT) | WaterLOGSY binding TRIM33α N1039F (TRIM33α N1039F) | WaterLOGSY binding TRIM33α WT (TRIM33α WT) | WaterLOGSY binding TRIM33β N1039F (TRIM33β N1039F) | WaterLOGSY binding TRIM33β WT (TRIM33β WT) | Kd (BRPF1 BRD) [µM]
COc1ccc(Nc2c(-c3[nH]cnc3C)nc3ccc(Br)cn23)cc1 [Compound 3] | 0.538 | 1.86 | 1.46 | 1.76 | 1.89 | 1.15 | 1.58 | 1.4 | 1.82 | 1.49 | Neither compound showed binding |  |  |  |  |  |  | 
Cc1nc[nH]c1-c1nc2ccccn2c1NCCN1CCOCC1 [Compound 4] | 3.78 | 52 | 23.1 | 18.6 | > 250 | > 250 | > 250 | > 250 | 58.7 | 55.3 | Neither compound showed binding |  |  |  |  |  |  | 
Cc1nc[nH]c1-c1nc2ccccn2c1NC1CCCCC1 [Compound 5] |  | 3.57 | 3.32 | 4.21 | 2.71 | 1.68 | 2.74 | 3.37 | 3.11 | 3.16 |  |  |  |  |  |  |  | 
COC(=O)c1ccc2nc(-c3c[nH]c(C)n3)c(NC3CCCCC3)n2c1 [Compound 6] |  | 17.1 | 11.1 | 20 | > 250 | 75.1 | 16.6 | 6.69 | 8.86 | 7.91 |  |  |  |  |  |  |  | 
CC(C)(C)Nc1c(-c2c[nH]c3ncccc23)nc2ccccn12 [Compound 7] |  | 105 | 58 | 43.8 | > 250 | > 250 | > 250 | > 250 | > 250 | > 250 |  |  |  |  |  |  |  | 
Cn1c(=O)n(C)c2cc(CNCCc3ccc(S(N)(=O)=O)cc3)ccc21 [Compound 8] |  |  |  |  |  |  |  |  |  |  |  | × | ✓ | ✓ | ✓ | ? | ✓ | 
O=C(CN1CCOC(c2cncc(-c3cccc(F)c3)n2)C1)NCc1ccccn1 (centres unmarked) [Compound 9] |  |  |  |  |  |  |  |  |  |  |  | × | × | ✓ | ✓ | × | ✓ | 
O=C(Nc1ccccc1)Nc1ccc2cccnc2c1 [Compound 10] |  |  |  |  |  |  |  |  |  |  |  | ✓ | ✓ | ✓ | ✓ | ✓ | ✓ | 
Cc1cc2c(NC(=O)Nc3ccccc3)cccc2nn1 [Compound 11] |  |  |  |  |  |  |  |  |  |  |  | ✓ | ✓ | ✓ | ✓ | ✓ | ✓ | 
CCCOc1cc(OCCCCN(C)C)cc(Oc2cc3c(cc2NS(=O)(=O)c2ccc(OC)c(OC)c2)n(C)c(=O)n3C)c1 [IACS-9571] |  |  |  |  |  |  |  |  |  |  |  |  |  |  |  |  |  | 0.014
